In patent publication US7629365B2 (Glaxo Group Limited, priority 2006, dated 2009):
Values after ≈ are worked out from the molar mass of the structure shown. Where two headings read alike, the source gives them in different places.

Experiment: Compound solubility determination in FaSSIF and FeSSIF
Assay type: physicochemical
Conditions: thermodynamic from solid
Description: Compound Solubility Determination
An amount of 3 mg solid compound with LC-MS purity ≧95% was required. This amount was split between 3 different glass vials (1.8 ml volume each), placing 1 mg compound into each one.
Organic solvents of HPLC grade were used. Ultra pure water (Milli-Q grade) was used. Buffers were prepared with ultra pure water and filtered using 0.45μ nylon filters. The compositions of each solvent employed in this assay are described below (part III).
2. Determination of Equilibrium Solubility (Assuming Chemical Stability in the Desired Solvent is Not a Problem).
For each of the three vial samples prepared as described above, in which the amount of compound was totally dissolved, the following procedure was subsequently carried out: • a) A small amount (approx. 0.1 mg) of additional solid compound was added to the vial to maintain an excess of the compound in the mixture in the form of undissolved solid. • b) The samples were magnetically stirred for 24 hr. If required, additional solid compound (0.1 mg) was added to maintain excess of it and then the samples were stirred again. • c) Then the samples were filtered (Millipore Milex filters nylon 0.2 um) and three aliquots were taken (one from each of the three vials) and analysed by LC-MS. • d) The pH of the final solution in each sample was measured with a pH-meter (WTW pH330i and a pH-electrode Sentix 41). 3. LC-MS Assay for Analytical Quantification
All filtered aliquots were analysed by LC-MS. The analysis was carried out with a Luna 5 μC18(2) column 4.6×150 mm, using a HP1100HPLC instrument interfaced with a Waters ZMD-2000 MS spectrometer. The concentration of the final sample as prepared above was calculated from that of a reference calibration curve obtained from serial dilutions of a 2 mM solution of the compound under investigation in DMSO (Aldrich cat. ref.: 27685-5) stock solution.
The analysis of all LC-MS data was performed with MassLynx 3.4 software. Statistical and graphic analysis of data was performed using Microsoft Excel. The concentration (μM) and solubility (μg/ml) for each compound was calculated using the peak areas from the sample and those from the calibration curve.
• A) FaSSIF is a solvent which simulates the Fasted State of the Intestinal Fluid. (FaSSIF: Fasted State Simulated Intestinal Fluid).
FaSSIF Preparation Procedure. 1. Preparation of 1 L of pH 6.8 Buffer Solution • 1.a. 3.947 g potassium phosphate and 16.401 g potassium chloride were dissolved in approx. 900 ml of water. • 1.b. The pH was adjusted to 6.8 by slow addition of 0.1 N sodium hydroxide (Scharlau SO 0441010C) under magnetic stirring. • 1.c The mixture was diluted to a volume of 1000 ml with water. 2. Preparation of 100 ml of FaSSIF • 2.a. 269 mg NaTaurochol. (Aldrich T-4009) was dissolved in approx. 80 ml of pH 6.8 buffer. • 2.b. 114 mg lecithin (Sigma P-7318) was dissolved in this NaTaurochol/buffer solution (this was carried out with a nitrogen filled glove bag). • 2.c. The resulting mixture was diluted to a volume of 100 ml with further pH 6.8 buffer • 2.d. The final solution was covered with a layer of nitrogen or alternative inert gas. The bottle was sealed with parafilm and stored at 4° C. • B) FeSSIF is a solvent which simulates the Fed State of the Intestinal Fluid. (FeSSIF: Fed State Simulated Intestinal Fluid).
FeSSIF Preparation Procedure. 1. Prepare 1 L of pH 5 Buffer Solution • 1.a. 15.2 g potassium chloride and 8.25 ml glacial acetic acid were dissolved in approx. 900 ml of water. • 1.b. The pH was adjusted to 5 by slow addition of NaOH 0.1N (Scharlau SO 0441010C) under magnetic stirring. • 1.c The mixture was diluted to a volume of 1000 ml with water. 2. Preparation of 100 mL of FeSSIF • 2.a. 806.5 mg NaTaurochol (Aldrich T-4009) was dissolved in 80 ml of pH 5 buffer. • 2.b. 288 mg lecithin (Sigma P-7318) was dissolved in this NaTaurochol/buffer solution (carried out with a nitrogen filled glove bag). • 2.c. […]

[1] = FaSSIF (Fasted State Simulated Intestinal Fluid), pH 6.8 buffer, read-out: Solubility in FaSSIF
[2] = FeSSIF (Fed State Simulated Intestinal Fluid), pH 5.0 buffer, read-out: Solubility in FeSSIF

solubility at 24 h [1] [µg/mL] | solubility at 24 h [2] [µg/mL] | SMILES
1 to 5 (≈ 2.28 to 11.4 µM) | 5 to 10 (≈ 11.4 to 22.8 µM) | Cc1[nH]c(C=NO)c(Cl)c(=O)c1-c1ccc(Oc2ccc(OC(F)(F)F)cc2)cc1 (single isomer, unassigned) [Example 7, 3-chloro-6-methyl-4-oxo-5-[4-({4-[(trifluoromethyl)oxy]phenyl}oxy)phenyl]-1,4-dihydro-2-pyridinecarbaldehyde oxime]
1 to 5 (≈ 2.44 to 12.2 µM) | 10 to 50 (≈ 24.4 to 122 µM) | Cc1[nH]c(CO)c(Cl)c(=O)c1-c1ccc(Oc2cccc(C(F)(F)F)c2)cc1 [Example 4, 3-chloro-2-(hydroxymethyl)-6-methyl-5-(4-{[3-(trifluoromethyl)phenyl]oxy}phenyl)-4(1H)-pyridinone]
10 to 50 (≈ 22 to 110 µM) | 10 to 50 (≈ 22 to 110 µM) | Cc1[nH]c(CCCO)c(-c2ccc(Oc3ccc(OC(F)(F)F)cc3)cc2)c(=O)c1Cl [Example 8, 3-chloro-6-(3-hydroxypropyl)-2-methyl-5-[4-({4-[(trifluoromethyl)oxy]phenyl}oxy)phenyl]-4(1H)-pyridinone]

Second part, the compound before the results:

SMILES | solubility at 24 h [1] [µg/mL] | solubility at 24 h [2] [µg/mL]
CON=Cc1[nH]c(C)c(Cl)c(=O)c1-c1ccc(Oc2ccc(OC(F)(F)F)cc2)cc1 (single isomer, unassigned) [Example 6, 5-Chloro-6-methyl-4-oxo-3-[4-({4-[(trifluoromethyl)oxy]phenyl}oxy)phenyl]-1,4-dihydro-2-pyridinecarbaldehyde-O-methyloxime] | 5 to 10 (≈ 11 to 22.1 µM) | 10 to 50 (≈ 22.1 to 110 µM)
Cc1[nH]c(CO)c(-c2ccc(Oc3ccc(OC(F)(F)F)cc3)cc2)c(=O)c1Cl [Example 1, 3-Chloro-6-(hydroxymethyl)-2-methyl-5-[4-({4-[(trifluoromethyl)oxy]phenyl}oxy)phenyl]-4(1H)-pyridinone] | 1 to 5 (≈ 2.35 to 11.7 µM) | 5 to 10 (≈ 11.7 to 23.5 µM)
Cc1[nH]c(CO)c(-c2ccc(Oc3cccc(C(F)(F)F)c3)cc2)c(=O)c1Cl [Example 2] | 1 to 5 (≈ 2.44 to 12.2 µM) | 1 to 5 (≈ 2.44 to 12.2 µM)
Cc1[nH]c(CO)c(Cl)c(=O)c1-c1ccc(Oc2ccc(OC(F)(F)F)cc2)cc1 [Example 3, 3-chloro-2-(hydroxymethyl)-6-methyl-5-[4-({4-[(trifluoromethyl)oxy]phenyl}oxy)phenyl]-4(1H)-pyridinone] | 5 to 10 (≈ 11.7 to 23.5 µM) | 10 to 50 (≈ 23.5 to 117 µM)
Cc1[nH]c(/C=N/O)c(-c2ccc(Oc3ccc(OC(F)(F)F)cc3)cc2)c(=O)c1Cl [Example 5, 5-Chloro-6-methyl-4-oxo-3-[4-({4-[(trifluoromethyl)oxy]phenyl}oxy)phenyl]-1,4-dihydro-2-pyridinecarbaldehyde oxime] | 5 to 10 (≈ 11.4 to 22.8 µM) | 10 to 50 (≈ 22.8 to 114 µM)
